Where two headings read alike, the source gives them in different places. Where a SMILES comes first, the peptide text is derived from it. The star is where a group is joined. Cbz = O=C(OCc1ccccc1)*
Legend:
CRBN-DDB1 complex [1] = target: T1, CRBN-DDB1 complex (Homo sapiens, UniProt Q96SW2); assay: fluorescence polarization (FP) assay, binding with the CRBN-DDB1 complex; details: single concentration of 1 μM; for binding to CRBN-DDB1 complex in FP assay (relative binding affinity): tested three times, conditions adjusted to around 84% of maximum signal for 1 μM lenalidomide
Protocol: All analogs were tested at a single concentration of 1 μM three times.

CRBN-DDB1 complex [2] = target: T1, CRBN-DDB1 complex; assay: as above
[3] = stability in phosphate buffer with different pHs; type: physicochemical; details: phosphate buffer pH 1.0, after 24 h
Description: (§1) Under acidic conditions, all compounds are very stable.

[4] = stability in human plasma (hP); type: in vitro ADME; details: after 4.0 h
Description: as §1

[5] = stability in phosphate buffer with different pHs; type: physicochemical; details: for PB7.4, percent compound remaining: phosphate buffer pH 7.4, after 24 h, 37° C.
[6] = stability in human liver microsomes (hLM); type: in vitro ADME; details: after 0.5 h
BRD4 in MV4; 11 cells = BRD4 in MV4; 11 cells (Homo sapiens, UniProt O60885); assay: Western blot of BRD4 in MV4; 11 cells (time course, dose response, mechanism); type: cell-based; details: for effect of 1 h pretreatment on BRD4 degradation induced by 13: pretreated 1 h, then 13 for 3 h
Description: We next verified the mechanism of action of degrader 13 (FIGS. 8G-8H).

MV4; 11 cells [7] = assay: AlamarBlue cell viability; type: cell-based, human; details: 72 h
Protocol: (§2) FIGS. 9A-9D. Functional studies of the PROTACs including anti-proliferation, apoptosis, G1 phase arrest, and reduced population in S phase. (FIG. 9A) AlamarBlue™ Cell Viability. […] (FIG. 9B) MV4; 11 cells were treated by indicated dosage of 13 for 48 h followed by flow cytofluorimetric cell cycle analysis. (FIGS. 9C and 9D) MV4; 11 cells were treated by indicated dosage of 13 for 48 h followed by flow cytofluorimetric apoptosis analyses.
AlamarBlue Cell Viability Cells were seeded in a 96-well plate at a density of 5000-10000 cells in 100 μl media per well and treated with DMSO control or test compounds at indicated doses. After incubated in CO2 incubator for 72 hours, cells were treated with 10 μL AlamarBlue solution ([…])). Fluorescence was measured in a plate reader with an excitation wavelength at 530-560 nm and emission wavelength at 590 nm. The fluorescence was normalized to the DMSO-treated cells, and the IC50 was calculated using GraphPad Prism 9 software.

caspase 3 cleavage = assay: Western blot of caspase 3 and cleaved caspase 3 in MV4; 11 cells; details: at 10 nm to 10 µM concentrations
MV4; 11 cells [8] = assay: flow cytofluorimetric apoptosis analysis; type: cell-based, human; details: 48 h
Protocol: as §2
(§3) Flow Cytometry Cell apoptosis and cell cycle were detected by Attune Flow cytometer (Thermo Fisher). Cells were seeded in a 6-well plate and treated with the indicated concentrations of compounds for 48 h. For samples for cell apoptosis detection, cells were harvested and incubated in Annexin V-FITC and PI reagents each for 15 minutes (Annexin V-FITC apoptosis detection kit, Invitrogen). For the samples for cell cycle detection, cells were fixed in 70% cold ethanol overnight and stained with PI (500 μg/ml) for 15 minutes. Flow data were analyzed using Flowjo software.

MV4; 11 cells [9] = assay: flow cytofluorimetric cell cycle analysis; type: cell-based, human; details: 48 h
Protocol: as §2, §3

[10] = in human blood; cited from earlier work
[11] = in-vivo in humans; cited from earlier work
[12] = phosphate buffer pH 8.8, after 24 h

T1 sequence (Q96SW2 whole entry): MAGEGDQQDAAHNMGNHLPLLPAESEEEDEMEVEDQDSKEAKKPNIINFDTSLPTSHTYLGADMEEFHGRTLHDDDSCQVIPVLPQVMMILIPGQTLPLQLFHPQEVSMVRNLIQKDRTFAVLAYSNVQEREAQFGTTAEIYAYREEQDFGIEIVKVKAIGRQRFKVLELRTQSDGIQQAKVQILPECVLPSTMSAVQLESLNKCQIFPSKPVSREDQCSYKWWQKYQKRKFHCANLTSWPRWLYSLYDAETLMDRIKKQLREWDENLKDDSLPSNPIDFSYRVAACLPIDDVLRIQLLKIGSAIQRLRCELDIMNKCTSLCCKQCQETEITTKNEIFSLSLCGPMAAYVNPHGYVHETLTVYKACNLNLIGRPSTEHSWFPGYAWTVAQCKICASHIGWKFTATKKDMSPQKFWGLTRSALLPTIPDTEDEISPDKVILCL
T1 sequence (Q16531 2-1140 partner limits assumed): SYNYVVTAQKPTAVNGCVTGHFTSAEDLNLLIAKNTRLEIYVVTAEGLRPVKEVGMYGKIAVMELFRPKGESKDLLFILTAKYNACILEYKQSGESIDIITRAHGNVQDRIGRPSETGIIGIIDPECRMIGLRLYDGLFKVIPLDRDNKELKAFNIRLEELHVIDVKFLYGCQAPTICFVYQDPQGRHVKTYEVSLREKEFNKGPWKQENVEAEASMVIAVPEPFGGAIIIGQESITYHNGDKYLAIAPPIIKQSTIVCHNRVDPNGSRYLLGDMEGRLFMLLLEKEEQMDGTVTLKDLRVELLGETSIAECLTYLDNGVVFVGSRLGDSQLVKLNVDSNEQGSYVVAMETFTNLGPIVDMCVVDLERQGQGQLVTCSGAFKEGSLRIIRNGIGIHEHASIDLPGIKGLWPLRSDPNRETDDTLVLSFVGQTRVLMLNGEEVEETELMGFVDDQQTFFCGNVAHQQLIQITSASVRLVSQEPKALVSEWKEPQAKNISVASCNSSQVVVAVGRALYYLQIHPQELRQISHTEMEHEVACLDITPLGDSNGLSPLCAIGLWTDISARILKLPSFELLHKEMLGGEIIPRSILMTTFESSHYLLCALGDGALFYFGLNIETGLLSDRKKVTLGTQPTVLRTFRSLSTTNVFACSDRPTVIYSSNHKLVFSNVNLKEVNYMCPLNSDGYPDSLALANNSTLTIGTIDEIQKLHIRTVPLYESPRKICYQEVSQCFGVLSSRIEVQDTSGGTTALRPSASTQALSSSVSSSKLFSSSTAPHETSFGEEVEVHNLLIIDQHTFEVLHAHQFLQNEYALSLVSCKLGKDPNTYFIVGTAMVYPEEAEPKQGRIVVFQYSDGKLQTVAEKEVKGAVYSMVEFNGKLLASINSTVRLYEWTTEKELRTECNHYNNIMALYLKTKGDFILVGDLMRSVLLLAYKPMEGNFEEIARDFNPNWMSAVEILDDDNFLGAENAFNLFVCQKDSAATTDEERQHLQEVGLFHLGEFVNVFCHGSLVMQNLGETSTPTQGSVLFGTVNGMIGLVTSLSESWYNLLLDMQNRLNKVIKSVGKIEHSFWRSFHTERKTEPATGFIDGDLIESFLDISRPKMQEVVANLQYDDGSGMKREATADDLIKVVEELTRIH

Structure (SMILES): O=C1CCN(c2ccccc2O)C(=O)N1 [Compound 3A, 1-(2-hydroxyphenyl)dihydropyrimidine-2,4(1H,3H)-dione]
- binding to CRBN-DDB1 complex in FP assay, in words (CRBN-DDB1 complex [1]): almost completely lost the binding affinity

Structure (SMILES): Cc1ccccc1N1CCC(=O)NC1=O [Compound 3B, 1-(o-tolyl)dihydropyrimidine-2,4(1H,3H)-dione]
- binding to CRBN-DDB1 complex in FP assay (relative binding affinity) (CRBN-DDB1 complex [1]): 35%
- increase of affinity by ortho-Me relative to parent PDHU 2 (CRBN-DDB1 complex [2]; FP assay Kd): about 2.5 times

Structure (SMILES): COc1ccccc1N1CCC(=O)NC1=O [Compound 3C, 1-(2-methoxyphenyl)dihydropyrimidine-2,4(1H,3H)-dione]
- binding to CRBN-DDB1 complex in FP assay, in words (CRBN-DDB1 complex [1]): decreased the binding

Structure (SMILES): CCc1ccccc1N1CCC(=O)NC1=O [Compound 3D, 1-(2-ethylphenyl)dihydropyrimidine-2,4(1H,3H)-dione]
- binding to CRBN-DDB1 complex in FP assay (relative binding affinity) (CRBN-DDB1 complex [1]): 29%

Structure (SMILES): O=C1CCN(c2ccccc2Cl)C(=O)N1 [Compound 3E, 1-(2-chlorophenyl)dihydropyrimidine-2,4(1H,3H)-dione]
- binding to CRBN-DDB1 complex in FP assay (relative binding affinity) (CRBN-DDB1 complex [1]): 36%

Structure (SMILES): O=C1CCN(c2cccc(O)c2)C(=O)N1 [Compound 4A, 1-(3-hydroxyphenyl)dihydropyrimidine-2,4(1H,3H)-dione]
- binding to CRBN-DDB1 complex in FP assay (relative binding affinity) (CRBN-DDB1 complex [1]): 57%

Structure (SMILES): COc1cccc(N2CCC(=O)NC2=O)c1 [Compound 4C, 1-(3-methoxyphenyl)dihydropyrimidine-2,4(1H,3H)-dione]
- binding to CRBN-DDB1 complex in FP assay (relative binding affinity) (CRBN-DDB1 complex [1]): 33%

Structure (SMILES): CC(C)(C)OC(=O)NCC#Cc1cccc(N2CCC(=O)NC2=O)c1 [Compound 4F, tert-butyl (3-(3-(2,4-dioxotetrahydropyrimidin-1(2H)-yl)phenyl)prop-2-yn-1-yl)carbamate]
- binding to CRBN-DDB1 complex in FP assay (relative binding affinity) (CRBN-DDB1 complex [1]): 56%

Structure (SMILES): CC(C)(C)OC(=O)COc1cccc(N2CCC(=O)NC2=O)c1 [Compound 4K, tert-butyl 2-(3-(2,4-dioxotetrahydropyrimidin-1(2H)-yl)phenoxy)acetate]
- binding to CRBN-DDB1 complex in FP assay (relative binding affinity) (CRBN-DDB1 complex [1]): 44%

Structure (SMILES): O=C1CCN(c2ccc(O)cc2)C(=O)N1 [Compound 5A, 1-(4-hydroxyphenyl)dihydropyrimidine-2,4(1H,3H)-dione]
- binding to CRBN-DDB1 complex in FP assay, in words (CRBN-DDB1 complex [1]): did not improve the binding as much as those on the meta-positions
- binding to CRBN-DDB1 complex in FP assay (relative binding affinity) (CRBN-DDB1 complex [1]): 38%

Structure (SMILES): CC(C)(C)OC(=O)COc1ccc(N2CCC(=O)NC2=O)cc1 [Compound 5K, tert-butyl 2-(4-(2,4-dioxotetrahydropyrimidin-1(2H)-yl)phenoxy)acetate]
- binding to CRBN-DDB1 complex in FP assay, in words (CRBN-DDB1 complex [1]): did not improve the binding as much as those on the meta-positions

Structure (SMILES): Cc1c(C#CCNC(=O)OC(C)(C)C)cccc1N1CCC(=O)NC1=O [Compound 6F, tert-butyl (3-(3-(2,4-dioxotetrahydropyrimidin-1(2H)-yl)-2-methylphenyl)prop-2-yn-1-yl)carbamate]
- PB1.0, percent compound remaining [3]: >99%
- hP, percent compound remaining [4]: 97%
- PB7.4, percent compound remaining [5]: >99%
- PB8.8, percent compound remaining [5, 12]: 93%
- hLM, percent compound remaining [6]: 87%

Structure (SMILES): Cc1ccc(O)cc1N1CCC(=O)NC1=O [Compound 7A, 1-(5-hydroxy-2-methylphenyl)dihydropyrimidine-2,4(1H,3H)-dione]
- binding to CRBN-DDB1 complex in FP assay (relative binding affinity) (CRBN-DDB1 complex [1]): 81%

Structure (SMILES): Cc1c(OCC(=O)N2CCCCC2)cccc1N1CCC(=O)NC1=O [Compound 9, 1-(2-methyl-3-(2-oxo-2-(piperidin-1-yl)ethoxy)phenyl)dihydropyrimidine-2,4(1H,3H)-dione]
- effect of 1 h pretreatment on BRD4 degradation induced by 13 (BRD4 in MV4; 11 cells): abolished the BRD4 degradation induced by 13
- PB1.0, percent compound remaining [3]: >99%
- PB7.4, percent compound remaining [5]: >99%
- PB8.8, percent compound remaining [5, 12]: 95%
- anti-proliferation activity, in words (MV4; 11 cells [7]): did not show any anti-proliferation activity at up to 100 μM
- hLM, percent compound remaining [6]: 85%

Structure (SMILES): CCNC(=O)COc1cccc(N2CCC(=O)NC2=O)c1C [Compound 10, 2-(3-(2,4-dioxotetrahydropyrimidin-1(2H)-yl)-2-methylphenoxy)-N-ethylacetamide]
- PB1.0, percent compound remaining [3]: >99%
- PB7.4, percent compound remaining [5]: >99%
- PB8.8, percent compound remaining [5, 12]: 95%
- hLM, percent compound remaining [6]: 100%

Structure (SMILES): CC(=O)NCCC#Cc1cccc(N2CCC(=O)NC2=O)c1C [Compound 11, N-(4-(3-(2,4-dioxotetrahydropyrimidin-1(2H)-yl)-2-methylphenyl)but-3-yn-1-yl)acetamide]
- PB1.0, percent compound remaining [3]: >99%
- PB7.4, percent compound remaining [5]: >99%
- PB8.8, percent compound remaining [5, 12]: 90%
- hLM, percent compound remaining [6]: 90%

Structure (SMILES): Cc1sc2c(c1C)C(c1ccc(Cl)cc1)=N[C@@H](CC(=O)NC1CCN(C(=O)COc3cccc(N4CCC(=O)NC4=O)c3C)CC1)c1nnc(C)n1-2 [Compound 13, (S)-2-(4-(4-chlorophenyl)-2,3,9-trimethyl-6H-thieno[3,2-f][1,2,4]triazolo[4,3-a][1,4]diazepin-6-yl)-N-(1-(2-(3-(2,4-dioxotetrahydropyrimidin-1(2H)-yl)-2-methylphenoxy)acetyl)piperidin-4-yl)acetamide]
- caspase 3 cleavage, in words (caspase 3 cleavage): successful in inducing caspase 3 cleavage
- cell apoptosis, in words (MV4; 11 cells [8]): induce cell apoptosis in a dose-dependent manner
- cell cycle effect, in words (MV4; 11 cells [9]): induce G1 phase arrest, decrease the cell population in S phase

Structure (SMILES): Cc1sc2c(c1C)C(c1ccc(Cl)cc1)=N[C@@H](CC(=O)NC1CCN(C(=O)COc3cccc(N4CCC(=O)N(C)C4=O)c3C)CC1)c1nnc(C)n1-2 [Compound 13NT, (S)-2-(4-(4-chlorophenyl)-2,3,9-trimethyl-6H-thieno[3,2-f][1,2,4]triazolo[4,3-a][1,4]diazepin-6-yl)-N-(1-(2-(2-methyl-3-(3-methyl-2,4-dioxotetrahydropyrimidin-1(2H)-yl)phenoxy)acetyl)piperidin-4-yl)acetamide]
- BRD4 degradation activity, in words (BRD4 in MV4; 11 cells; several concentrations, 24 h): No degradation activity of BRD4 was observed

Structure (SMILES): Cc1ccc(Oc2ccc(C=O)cc2)cc1N1CCC(=O)NC1=O [Compound 15A]
- binding to CRBN-DDB1 complex in FP assay (relative binding affinity) (CRBN-DDB1 complex [1]): 70%
- Kd (CRBN-DDB1 complex [2]; FP assay): 170 nM

Structure (SMILES): O=Cc1ccc(Oc2cccc(N3CCC(=O)NC3=O)c2)cc1 [Compound 15B]
- binding to CRBN-DDB1 complex in FP assay (relative binding affinity) (CRBN-DDB1 complex [1]): 33%

Structure (SMILES): Cc1c(Oc2ccc(C=O)cc2)cccc1N1CCC(=O)NC1=O [Compound 15C]
- binding to CRBN-DDB1 complex in FP assay (relative binding affinity) (CRBN-DDB1 complex [1]): 21%

Structure (SMILES): Cc1ccc(Oc2ccccc2)cc1N1CCC(=O)NC1=O [Compound 15D]
- binding to CRBN-DDB1 complex in FP assay, in words (CRBN-DDB1 complex [1]): slightly weaker than 15A

Structure (SMILES): COC(=O)c1cccc(Nc2ccc(C)c(N3CCC(=O)NC3=O)c2)c1 [Compound 16A]
- binding to CRBN-DDB1 complex in FP assay, in words (CRBN-DDB1 complex [1]): remain relatively high binding affinity

Structure (SMILES): Cc1ccc(Nc2ccccc2)cc1N1CCC(=O)NC1=O [Compound 16B]
- binding to CRBN-DDB1 complex in FP assay, in words (CRBN-DDB1 complex [1]): remain relatively high binding affinity

Structure (SMILES): Cc1sc2c(c1C)C(c1ccc(Cl)cc1)=N[C@@H](CC(=O)OC(C)(C)C)c1nnc(C)n1-2 [JQ1, reference compound]
- anti-proliferation activity, in words (MV4; 11 cells [7]): weaker anti-proliferation activity than 13, but higher activity than compound 13NT

Structure (SMILES): Nc1cccc2c1CN(C1CCC(=O)NC1=O)C2=O (stereo not shown) [Lenalidomide, lenalidomide, reference compound]
- PB1.0, percent compound remaining [3]: >99%
- hP, percent compound remaining [4]: 62%
- PB7.4, percent compound remaining [5]: 39%
- PB8.8, percent compound remaining ([5]; phosphate buffer pH 8.8, after 2 h): 20%
- PB8.8, percent compound remaining [5, 12]: 0%
- hLM, percent compound remaining [6]: 89%

Structure (SMILES): CC(C)C[C@@H](C=O)NC(=O)[C@H](CC(C)C)NC(=O)[C@H](CC(C)C)NC(=O)OCc1ccccc1 [MG132, reference compound] (Cbz-Leu-Leu-Leu-aldehyde)
- effect of 1 h pretreatment on BRD4 degradation induced by 13 (BRD4 in MV4; 11 cells): abolished the BRD4 degradation induced by 13

Structure (SMILES): NS(=O)(=O)OC[C@@H]1C[C@@H](n2ccc3c(N[C@H]4CCc5ccccc54)ncnc32)C[C@@H]1O [MLN4924, reference compound]
- effect of 1 h pretreatment on BRD4 degradation induced by 13 (BRD4 in MV4; 11 cells): abolished the BRD4 degradation induced by 13

Structure (SMILES): O=C1CCC(N2C(=O)c3ccccc3C2=O)C(=O)N1 (stereo not shown) [thalidomide]
- racemization half-life [10]: ~2.0 h
- racemization half-life [11]: ~5.0 h
